Patent US8247170B2, “Detection of penicillin tolerance in Group B Streptococcus: single nucleotide polymorphisms in penicillin binding protein 4” (priority 2008, dated 2012)

System: GBS clinical isolates and laboratory strains
Test: Macrobroth penicillin tolerance assay
Assay type: cell-based, Group B Streptococcus
Settings: then 24 h drug-free; for 10xMIC, regrowth O.D.600: Penicillin G 10×MIC90 48 h; for 30xMIC, regrowth O.D.600: Penicillin G 30×MIC90 48 h; for 100xMIC, regrowth O.D.600: Penicillin G 100×MIC90 48 h; for 300xMIC, regrowth O.D.600: Penicillin G 300×MIC90 48 h
Procedure: Using this modified penicillin tolerance assay, tolerant strains from the GBS clinical isolates can be more efficiently identified. In this macrobroth culture format, 25 ml THB broth GBS cultures (containing clinical isolates) were grown to an early exponential growth phase (˜0.2 OD600). Cell cultures (6 ml) were collected and divided into 4 culture tubes. […] Cell cultures were shaken at 150 rpm in order to maintain cells in suspension for proper growth. Subcultures (1/20 dilution) of cells were put into fresh THB containing […] Penase (i.e., 100 μl of Penase 10,000 U stock into 4 ml THB culture). Subcultures were allowed to grow for 24 hours at 37° C. Cell growth was monitored by OD (see Example 2).
(I) Bacterial Strains and Culture Conditions. GBS strains A909 (serotype IA), 515 (serotype IA), NEM316 (serotype III), COHI (serotype III), 2603V/R (serotype V) and O90R (non-typable) were used in this study. E. coli Top10 cells were used for the recombination experiments. GBS was cultured in Todd Hewitt broth (THB) or Tryptic Soy 5% sheep blood (TS) media and E. coli in Luria-broth (LB) medium or agar. Antibiotics were used at the following concentrations: for GBS—penicillin G (MIC90 0.06 μg ml^−1), ampicillin (MIC90 0.12 μg ml^−1), vancomycin (MIC90 2 μg ml^−1), cefazolin (MIC90 1 μg ml^−1) and chloramphenicol (5 μg ml^−1); for E. coli—ampicillin (50 μg ml^−1) and chloramphenicol (5 μg ml^−1). Both GBS and E. coli cultures were grown at 37° C. (II) Tolerance Using the MBC:MIC Ratio Method. Three GBS laboratory strains (i.e., A909, NEM316, and O90R) were cultured overnight for 18 h at 37° C. in THB. Subcultures in THB were subsequently grown to exponential phase (OD600˜0.3; i.e. 5×10^5 cfu/ml) at 37° C. Cell cultures were then exposed to different concentrations of antibiotics (Penicillin G, Ampicillin, Cefozolin or Vancomycin). […] Cell cultures were dispersed every 18 h before OD600 was measured to determine the lowest concentration of antibiotic with 90% growth inhibition (MIC90). Antibiotic treated cells (8 μl) from each well were re-suspended into PBS (100 μl) and plated (54 μl) on TS agar plates and allowed to grow for an additional 24 h at 37° C. Cell count was performed to determine the lowest concentration of antibiotic with 90% killing of original inoculums (MBC90). (III) Penicillin Killing and Regrowth Tolerance Assay by Microbroth Dilution. Three GBS laboratory strains (i.e., A909, NEM316, and O90R) were cultured overnight for 18 h at 37° C. in THB. Subcultures in THB were subsequently grown to exponential phase (OD600˜0.3) at 37° C. Cell cultures were then exposed to different concentrations of Penicillin G (Sigma, St. Louis, Mo.). […] Cell cultures were dispersed. A 1:20 dilution of cells was re-plated into new wells containing fresh THB with 500 U Penase (to degrade residual penicillin). Cell cultures were allowed to re-grow for an additional 24 h at 37° C. before the OD600 was measured. (IV) Measuring Cell Viability by Determining ATP Concentration. GBS strains were cultured for 18 h at 37° C. in THB. These cells were inoculated into fresh THB and subsequently allowed to grow to exponential phase (OD600 0.25-0.3) at 37° C. One ml of each culture was centrifuged at 5,000×g for 4 min. The cell pellet was re-suspended in ATP-free water. Cellular ATP was extracted using trichloroacetic acid (TCA) (5%) for 2 min and subsequently neutralized with Tris-EDTA-0.1M NaOAc, pH 7.75 to 10×TCA volume. The initial (in.) cellular ATP concentration ([ATP]) was measured using the ENLITEN (Promega) luciferase based reaction kit. THB cultures were then treated with 100×MIC90 Penicillin G for 22 h. The experimental (exp.) cellular ATP was extracted and the concentration was measured as stated above. Based on the calculations ([ATP] exp.)/([ATP] in./O.D. in.), differences in viability were equated with the change in [ATP]. (V) Measuring Penicillin Induced Lysis. Three GBS laboratory strains (A909, NEM316, and O90R) were cultured for 18 h at 37° C. in THB. […]

CC1(C)S[C@@H]2[C@H](NC(=O)Cc3ccccc3)C(=O)N2[C@H]1C(=O)O [Penicillin G]
10xMIC, regrowth O.D.600 (GBS strain 308 (V)): −− (“−−” indicates an O.D.600 of 0.001 to 0.099) | 30xMIC, regrowth O.D.600 (GBS strain 308 (V)): −− (“−−” indicates an O.D.600 of 0.001 to 0.099) | 100xMIC, regrowth O.D.600 (GBS strain 308 (V)): −− (“−−” indicates an O.D.600 of 0.001 to 0.099) | 300xMIC, regrowth O.D.600 (GBS strain 308 (V)): −− (“−−” indicates an O.D.600 of 0.001 to 0.099) | 10xMIC, regrowth O.D.600 (GBS strain 311 (Ib)): −− (“−−” indicates an O.D.600 of 0.001 to 0.099) | 30xMIC, regrowth O.D.600 (GBS strain 311 (Ib)): −− (“−−” indicates an O.D.600 of 0.001 to 0.099) | 100xMIC, regrowth O.D.600 (GBS strain 311 (Ib)): + (“+” indicates an O.D.600 of 0.100 to 0.250) | 300xMIC, regrowth O.D.600 (GBS strain 311 (Ib)): + (“+” indicates an O.D.600 of 0.100 to 0.250) | 10xMIC, regrowth O.D.600 (GBS strain 316 (V)): −− (“−−” indicates an O.D.600 of 0.001 to 0.099) | 30xMIC, regrowth O.D.600 (GBS strain 316 (V)): −− (“−−” indicates an O.D.600 of 0.001 to 0.099) | 100xMIC, regrowth O.D.600 (GBS strain 316 (V)): −− (“−−” indicates an O.D.600 of 0.001 to 0.099) | 300xMIC, regrowth O.D.600 (GBS strain 316 (V)): −− (“−−” indicates an O.D.600 of 0.001 to 0.099) | 10xMIC, regrowth O.D.600 (GBS strain 320 (III)): +++ (“+++” indicates an O.D.600 of 0.751 to 1.500) | 30xMIC, regrowth O.D.600 (GBS strain 320 (III)): +++ (“+++” indicates an O.D.600 of 0.751 to 1.500) | 100xMIC, regrowth O.D.600 (GBS strain 320 (III)): +++ (“+++” indicates an O.D.600 of 0.751 to 1.500) | 300xMIC, regrowth O.D.600 (GBS strain 320 (III)): +++ (“+++” indicates an O.D.600 of 0.751 to 1.500) | 10xMIC, regrowth O.D.600 (GBS strain 357 (NT)): −− (“−−” indicates an O.D.600 of 0.001 to 0.099) | 30xMIC, regrowth O.D.600 (GBS strain 357 (NT)): −− (“−−” indicates an O.D.600 of 0.001 to 0.099) | 100xMIC, regrowth O.D.600 (GBS strain 357 (NT)): +++ (“+++” indicates an O.D.600 of 0.751 to 1.500) | 300xMIC, regrowth O.D.600 (GBS strain 357 (NT)): ++ (“++” indicates an O.D.600 of 0.251 to 0.750) | 10xMIC, regrowth O.D.600 (GBS strain 359 (V)): −− (“−−” indicates an O.D.600 of 0.001 to 0.099) | 30xMIC, regrowth O.D.600 (GBS strain 359 (V)): −− (“−−” indicates an O.D.600 of 0.001 to 0.099) | 100xMIC, regrowth O.D.600 (GBS strain 359 (V)): −− (“−−” indicates an O.D.600 of 0.001 to 0.099) | 300xMIC, regrowth O.D.600 (GBS strain 359 (V)): −− (“−−” indicates an O.D.600 of 0.001 to 0.099) | 10xMIC, regrowth O.D.600 (GBS strain 367 (V)): −− (“−−” indicates an O.D.600 of 0.001 to 0.099) | 30xMIC, regrowth O.D.600 (GBS strain 367 (V)): −− (“−−” indicates an O.D.600 of 0.001 to 0.099) | 100xMIC, regrowth O.D.600 (GBS strain 367 (V)): −− (“−−” indicates an O.D.600 of 0.001 to 0.099) | 300xMIC, regrowth O.D.600 (GBS strain 367 (V)): −− (“−−” indicates an O.D.600 of 0.001 to 0.099) | 10xMIC, regrowth O.D.600 (GBS strain 377 (V)): −− (“−−” indicates an O.D.600 of 0.001 to 0.099) | 30xMIC, regrowth O.D.600 (GBS strain 377 (V)): −− (“−−” indicates an O.D.600 of 0.001 to 0.099) | 100xMIC, regrowth O.D.600 (GBS strain 377 (V)): −− (“−−” indicates an O.D.600 of 0.001 to 0.099) | 300xMIC, regrowth O.D.600 (GBS strain 377 (V)): −− (“−−” indicates an O.D.600 of 0.001 to 0.099) | 10xMIC, regrowth O.D.600 (GBS strain 378 (NT)): −− (“−−” indicates an O.D.600 of 0.001 to 0.099) | 30xMIC, regrowth O.D.600 (GBS strain 378 (NT)): −− (“−−” indicates an O.D.600 of 0.001 to 0.099) | 100xMIC, regrowth O.D.600 (GBS strain 378 (NT)): −− (“−−” indicates an O.D.600 of 0.001 to 0.099) | 300xMIC, regrowth O.D.600 (GBS strain 378 (NT)): −− (“−−” indicates an O.D.600 of 0.001 to 0.099) | 10xMIC, regrowth O.D.600 (GBS strain 379 (V)): −− (“−−” indicates an O.D.600 of 0.001 to 0.099) | 30xMIC, regrowth O.D.600 (GBS strain 379 (V)): −− (“−−” indicates an O.D.600 of 0.001 to 0.099) | 100xMIC, regrowth O.D.600 (GBS strain 379 (V)): −− (“−−” indicates an O.D.600 of 0.001 to 0.099) | 300xMIC, regrowth O.D.600 (GBS strain 379 (V)): −− (“−−” indicates an O.D.600 of 0.001 to 0.099) | 10xMIC, regrowth O.D.600 (GBS strain 380 (NT)): −− (“−−” indicates an O.D.600 of 0.001 to 0.099) | 30xMIC, regrowth O.D.600 (GBS strain 380 (NT)): −− (“−−” indicates an O.D.600 of 0.001 to 0.099) | 100xMIC, regrowth O.D.600 (GBS strain 380 (NT)): +++ (“+++” indicates an O.D.600 of 0.751 to 1.500) | 300xMIC, regrowth O.D.600 (GBS strain 380 (NT)): + (“+” indicates an O.D.600 of 0.100 to 0.250) | 10xMIC, regrowth O.D.600 (GBS strain 388 (NT)): −− (“−−” indicates an O.D.600 of 0.001 to 0.099) | 30xMIC, regrowth O.D.600 (GBS strain 388 (NT)): −− (“−−” indicates an O.D.600 of 0.001 to 0.099) | 100xMIC, regrowth O.D.600 (GBS strain 388 (NT)): −− (“−−” indicates an O.D.600 of 0.001 to 0.099) | 300xMIC, regrowth O.D.600 (GBS strain 388 (NT)): −− (“−−” indicates an O.D.600 of 0.001 to 0.099) | 10xMIC, regrowth O.D.600 (GBS strain 389 (Ia)): ++ (“++” indicates an O.D.600 of 0.251 to 0.750) | 30xMIC, regrowth O.D.600 (GBS strain 389 (Ia)): +++ (“+++” indicates an O.D.600 of 0.751 to 1.500) | 100xMIC, regrowth O.D.600 (GBS strain 389 (Ia)): +++ (“+++” indicates an O.D.600 of 0.751 to 1.500) | 300xMIC, regrowth O.D.600 (GBS strain 389 (Ia)): +++ (“+++” indicates an O.D.600 of 0.751 to 1.500) | 10xMIC, regrowth O.D.600 (GBS strain 391 (NT)): ++ (“++” indicates an O.D.600 of 0.251 to 0.750) | 30xMIC, regrowth O.D.600 (GBS strain 391 (NT)): ++ (“++” indicates an O.D.600 of 0.251 to 0.750) | 100xMIC, regrowth O.D.600 (GBS strain 391 (NT)): ++ (“++” indicates an O.D.600 of 0.251 to 0.750) | 300xMIC, regrowth O.D.600 (GBS strain 391 (NT)): ++ (“++” indicates an O.D.600 of 0.251 to 0.750) | 10xMIC, regrowth O.D.600 (GBS strain 399 (V)): −− (“−−” indicates an O.D.600 of 0.001 to 0.099) | 30xMIC, regrowth O.D.600 (GBS strain 399 (V)): + (“+” indicates an O.D.600 of 0.100 to 0.250) | 100xMIC, regrowth O.D.600 (GBS strain 399 (V)): + (“+” indicates an O.D.600 of 0.100 to 0.250) | 300xMIC, regrowth O.D.600 (GBS strain 399 (V)): + (“+” indicates an O.D.600 of 0.100 to 0.250)
